# Article PMC9445589, “Apolipoprotein E mimetic peptide COG1410 combats pandrug-resistant Acinetobacter baumannii” (Frontiers in Microbiology, 2022)
# Where “and” joins values, the source holds several entries; their conditions need not be identical. Equal values may be shown once. Read-outs that look alike come from different tables or passages of the source.
# Tests used:
# [1] = test system: Acinetobacter baumannii; conditions: ref (1); cited from earlier work
# Source text: (§1) Supplement Table_1.DOCX, table 1: Table S1. Antibacterial effect of ApoE-derived peptides. | column: MIC (μM) || However, the current pipeline of novel antibiotic development is stagnant, which could not keep pace with these evolving pathogens. The pharmaceutical field turns to seek non-conventional anti-infective agents. The antimicrobial peptides (AMPs) have drawn a lot of attention as novel chemotherapeutic candidates because of their unique mechanisms of action (Mahlapuu et al., [2016]). It is known that the sources of AMPs are diverse, ranging from prokaryotes to humans (Zhang and Gallo, [2016]). One of the most promising AMPs is the protein mimetic peptide, which originates from a functional protei ...
# [2] = test system: Escherichia coli; conditions: cited from earlier work
# Source text: as §1
# [3] = test system: Pseudomonas aeruginosa; conditions: cited from earlier work
# Source text: as §1
# [4] = test system: Enterococcus faecium; conditions: ref (1); cited from earlier work
# Source text: (§2) Supplement Table_1.DOCX, table 1: Table S1. Antibacterial effect of ApoE-derived peptides. | column: MIC (μM)
# [5] = test system: Staphylococcus aureus; conditions: cited from earlier work
# Source text: as §2
# [6] = test system: Klebsiella pneumoniae; conditions: cited from earlier work
# Source text: as §2
# [7] = test system: PDR Acinetobacter baumannii YQ4; assay: microbe, parasite or virus in culture; format: cell-based
# Experimental: Strain stocks were maintained at −80°C in 10% glycerol. Bacteria were streaked on fresh plates before each experiment. Most of them were cultured in LB broth containing 10 g/L NaCl at 37°C, except for Mycobacteria in 7H9 broth and Enterococcus in BHI broth. Porphyromonas gingivalis was cultured in BHI broth supplemented with 1 μg/ml vitamin k1, 5 μg/ml hemin, and 5 mg/ml L-cysteine hydrochloride at 37°C in the anaerobic chamber. The minimal inhibitory concentrations (MICs) of antimicrobials were determined using the microdilution method in the corresponding broth.
# The pandrug-resistant A. baumannii YQ4 was collected from the clinical laboratory of the second hospital in Nanjing. The complete genome was sequenced by Nanopore, and the data were deposited in the GenBank with accession number CP053033.
# [8] = test system: PDR A. baumannii strain YQ4; assay: checkerboard synergy, fractional inhibitory concentration (FIC); format: cell-based, Acinetobacter baumannii; conditions: checkerboard method, 37°C, 20 h, two independent experiments
# [9] = test system: A. baumannii; conditions: ref De Breij et al., [2018], cited from earlier work
# Experimental: The major challenge for the therapeutic application of AMP is the degradation or inactivation in plasma (Dijksteel et al., [2021]). The bactericidal efficacy of COG1410 was further assessed in plasma. The LC99.9 values of COG1410 in PBS and 50% pooled plasma were 1.4 and 5.6 μM, respectively. This was even better than LL-37-derived AMP, SAAP-148, of which the corresponding LC99.9 values were 1.6 and 12.8 μM, against A. baumannii, respectively (De Breij et al., [2018]).
# [10] = test system: A. baumannii YQ4; assay: scanning electron microscopy (SEM) of treated cells; format: cell-based, Acinetobacter baumannii
# Experimental: The log-phase culture of A. baumannii YQ4 was prepared as described above, harvested, and washed once with PBS. The pellets were suspended in PBS supplemented with 1 × COG1410 (16 μg/ml) or 1 × polymyxin B (16 μg/ml) and incubated at 37°C for 30 min. The untreated culture was used as a positive control to observe the morphology of the intact cell. […] After washing three times with PBS, the cells were post-fixed in 1% osmium at 4 °C for 1 h. After washing in distilled water for 1 h, the bacteria were dehydrated in the ascending concentrations of ethanol. Finally, these samples were transferred to ThermoFisher Quattro SEM for image collection after tert-butanol freeze-drying and sputter coating.
# [11] = test system: A. baumannii YQ4; assay: Live/Dead BacLight SYTO-9/PI staining, confocal microscopy; format: cell-based, Acinetobacter baumannii
# Experimental: The damage to the cytoplasmic membrane was determined as described previously (Farkas et al., [2017]), with the Live/Dead BacLight bacterial viability kit (Invitrogen L7012). The log-phase culture of A. baumannii YQ4 was washed two times and suspended in PBS with the final OD600 of 0.1. […] Then, the cells were stained with 7.5 μM SYTO-9 and 30 μM propidium iodide (PI) in dark for 15 min. In total, 5 μl of culture was spotted on a clean slide coated with a thin layer of 1% agarose. The fluorescence was observed by Olympus FV3000 confocal laser scanning microscope. For SYTO-9, the excitation and emission were 483 and 503 nm, respectively. For PI, the excitation and emission were 493 and 636 nm, respectively.
# [12] = test system: A. baumannii YQ4; assay: ATP leak assay; format: cell-based, Acinetobacter baumannii; conditions: 16 μg/ml COG1410, 16 μg/ml polymyxin B or 32 μg/ml tigecycline (1× MIC), PBS, 37°C, 30 min
# Experimental: ATP leak assay was performed using the Enhanced ATP Assay Kit of Beyotime ([…]) according to the manufacturer's manual. […] The supernatant was harvested and used for the measurement of ATP levels. In total, 100 μl of supernatant was mixed with 100 μl of working solution, and the chemiluminescence was measured by using a Biotek Synergy H1 plate reader. The untreated sample was set as a negative control. The experiments were performed in triplicate.
# [13] = test system: A. baumanii YQ4; assay: induction of resistance through serial passage; conditions: sub-MIC exposure, 55 passages
# [14] = test system: A. baumannii YQ4; assay: transmission electron microscopy (TEM) of treated cells
# [15] = Acinetobacter baumannii, Table 2, agent alone, PDR A. baumannii strain YQ4, unit not in the table, μg/ml, read-out: MIC
compound,measurement,setting,value
"LRKLRKRLVRLASHLRKLRKRLL [ApoE23, ApoE-derived peptide, locations 141-148+135-149]","MIC, Ab",[1],2 µM and 2.0 µM
same,"MIC, Ec",[2]; ref (1),2.0 µM
same,"MIC, Pa",[3]; ref (1),2.7 µM
same,"MIC, Ef",[4],void (“void” indicates that the MIC is more than 100 μM)
same,"MIC, Sa",[5]; ref (1),5.4 µM
"LRKLRKRLL [ApoE141-149, ApoE-derived peptide, location 141-149]","MIC, Pa",[3]; ref (3),30 µM
same,"MIC, Sa",[5]; ref (3),void (“void” indicates that the MIC is more than 100 μM)
"LRVRLASHLRKLRKRLLR [sApoE133-150, ApoE-derived peptide, location 133-150]","MIC, Pa",[3]; ref (5),25/50
same,"MIC, Kp",[6]; ref (5),6.25 µM
same,"MIC, Sa",[5]; ref (5),3.12 µM
gentamycin [GM],MIC,"[7]; Table 2, agent alone, PDR A. baumannii strain YQ4, unit not in the table, μg/ml",">1,024 μg/ml"
same,FIC with COG1410,[8],>1
"LRVRLASHLRKLRKRLLRDADDLQKRLAVY [ApoE30, ApoE-derived peptide, location 133-162]","MIC, Ec",[2]; ref (2),1.3 µM
same,"MIC, Pa",[3]; ref (2),8.1 µM
same,"MIC, Sa",[5]; ref (2),16.2 µM
SAAP-148,LC99.9,[9]; 50% pooled plasma,12.8 µM
same,LC99.9,[9]; PBS,1.6 µM
"C[C@@H](O)[C@H]1C(=O)N2C(C(=O)O)=C(S[C@@H]3CN[C@H](C(=O)N(C)C)C3)[C@H](C)[C@H]12 [MERO, meropenem]",MIC,[7]; [15],32 µg/mL
same,FIC with COG1410,[8],0.56
polymyxin B [reference compound],cell morphology by SEM,[10],cell lysis and release of cell contents
same,SYTO-9/PI staining of treated cells,[11],red fluorescence
same,ATP leak (extracellular ATP),[12],released more ATP compared to untreated cells
same,increase of MIC after serial passage,[13],64 fold
same,cell membrane integrity by TEM,[14],collapse of cell walls in most of the cells
"ApoE130−162: fragment containing the receptor-binding domain of ApoE (130–162) (TEELRVRLASHLRKLRKRLLRDADDLQKRLAVY; UniProt P02649 148-180, looked up, fragment)","antibacterial activity, in words","[2]; ref Azuma et al., [2000]",active
same,"antibacterial activity, in words","[3]; compared with Escherichia coli, ref Azuma et al., [2000]",to a lesser extent
"LRVRLASHLRKLRKRLL [COG133, ApoE-derived peptide, 133–149 of ApoE]","MIC, Pa",[3]; ref (5),25/50
same,"MIC, Kp",[6]; ref (5),3.12 µM
same,"MIC, Sa",[5]; ref (5),void (“void” indicates that the MIC is more than 100 μM)
"O=C(O)c1cn(C2CC2)c2cc(N3CCNCC3)c(F)cc2c1=O [CIP, ciprofloxacin]",MIC,[7]; Acinetobacter baumannii,256 µg/mL
same,FIC with COG1410,[8],0.8
"WRKWRKRWWWRKWRKRWW [ApoEp-W, ApoE-derived peptide, locations 141-149+141-149]","MIC, Kp",[6]; ref (4),<3.3 µM
same,"MIC, Sa",[5]; ref (4),<3.3 µM
"CN(C)c1cc(NC(=O)CNC(C)(C)C)c(O)c2c1C[C@H]1C[C@H]3[C@H](N(C)C)C(O)=C(C(N)=O)C(=O)[C@@]3(O)C(O)=C1C2=O [TGC, tigecycline]",MIC,[7]; [15],32 µg/mL
same,FIC with COG1410,[8],1.06
"LRKLRKRLLLRKLRKRLL [ApoEp, ApoE-derived peptide, locations 141-149+141-149]","MIC, Pa","[3]; ref (1, 3)",5 µM
same,"MIC, Sa","[5]; ref (1, 3)",35 µM
"CN(C)[C@@H]1C(O)=C(C(N)=O)C(=O)[C@@]2(O)C(O)=C3C(=O)c4c(O)cccc4[C@@](C)(O)[C@H]3C[C@@H]12 [TET, tetracycline]",MIC,[7]; [15],1020 µg/mL
same,FIC with COG1410,[8],0.31
"CC(C)(O/N=C(\C(=O)N[C@@H]1C(=O)N2C(C(=O)[O-])=C(C[n+]3ccccc3)CS[C@H]12)c1csc(N)n1)C(=O)O [CAZ, ceftazidime]",MIC,[7]; Acinetobacter baumannii,512 µg/mL
same,FIC with COG1410,[8],0.31
"NCC[C@H](O)C(=O)N[C@@H]1C[C@H](N)[C@@H](O[C@H]2O[C@H](CN)[C@@H](O)[C@H](O)[C@H]2O)[C@H](O)[C@H]1O[C@H]1O[C@H](CO)[C@@H](O)[C@H](N)[C@H]1O [AMI, amikacin]",MIC,[7]; [15],> 1020 µg/mL
same,FIC with COG1410,[8],>1
